From the METLIN SMRT retention time set (Domingo-Almenara et al. 2019)

Assay: gradient 5% acetonitrile 3 min, to 50% in 2 min, to 85% in 15 min, held 3 min, 100 µL/min
Conditions: column: Zorbax Extend-C18 2.1 x 50 mm; eluents: water / acetonitrile, 0.1% formic acid
Procedure, shortened: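 Values are retention times taken from adduct peaks that software picked and an analyst inspected. The pure standards were run as mixtures of ~100 molecules on HPLC linked to a quadrupole time-of-flight mass spectrometer, in positive and negative ionization mode. A Zorbax Extend-C18 column (2.1 × 50 mm, 1.8 μm) was used at 100 μL/min with water and acetonitrile, each including 0.1% formic acid.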

Row | Compound | RP-LC retention time
1 | COc1ccc(-n2c(C)nc3ccc(NC(=O)c4cccc([N+](=O)[O-])c4C)cc3c2=O)cc1 | 779 s
2 | O=C(CCSc1nnnn1-c1ccc(Cl)cc1)Nc1nccs1 | 776 s
3 | COc1ccc(-n2nnc(C(=O)O)c2C)cc1OC | 628 s
4 | CCn1cc(CC(=O)NCc2ccc3c(c2)OCO3)c2cccnc21 | 690 s
5 | CCCCc1nn2c(=O)cc(CN3CCN(c4ncccn4)CC3)nc2s1 | 604 s
6 | CCOCCCNC(=O)CCC(=O)N1CC2CCCN2c2ccccc21 (stereo unspecified) | 729 s
7 | COCCNC(=O)CCc1cc2ccc(C)cc2[nH]c1=O | 614 s
8 | CCCCS(=O)(=O)c1cc2c(cc1NC(=O)c1cccc(C)c1)n(C)c(=O)n2C | 981 s
9 | Cc1nc(Cn2cccc2C(=O)Nc2ccc(C)c(C)c2)no1 | 910 s
10 | CCOc1ccc(C(=O)NCc2c(C)noc2C)cc1OCC | 757 s
11 | CCCCN1C(=O)C(CC(=O)N2CCOCC2)Sc2ncccc21 (stereo unspecified) | 708 s
12 | COc1ccc(CNC(=O)Cc2nnc(-c3ccc4ncccc4c3)o2)c(OC)c1 | 841 s
13 | COCC1(O)CCOC2(CCN(C(=O)c3cccs3)CC2)C1 (stereo unspecified) | 621 s
14 | CC(C)c1cc(CNc2nc(Nc3cc(C4CC4)[nH]n3)cc(N3CCN(C)CC3)n2)on1 | 647 s
15 | COc1cc(CNC(=O)C2CCCN(c3nccc(C)n3)C2)cc(OC)c1OC (stereo unspecified) | 655 s
16 | CCCNC(=O)c1ccc2c(c1)N(C)C(=O)CS2 | 843 s
17 | Cc1cccc(NC(=O)NCC(O)Cc2ccccc2)c1 (stereo unspecified) | 734 s
18 | CCOC(=O)c1c(C)[nH]c(C(=O)N2CCC(CC(=O)NC(C)CC)CC2)c1C (stereo unspecified) | 715 s
19 | CC(=O)Nc1cccc(N2CC(C(=O)Nc3ccc(C)cc3Br)CC2=O)c1 (stereo unspecified) | 720 s
20 | CN1C(=O)c2cccn2CC1CNC(=O)NCCc1ccccc1 (stereo unspecified) | 661 s
21 | CCN(CC)C(=O)c1c(C)oc2ccn(Cc3ccc(F)cc3)c(=O)c12 | 787 s

Row | Compound | RP-LC retention time
22 | CCOC(=O)C1CCN(C(=O)c2nc(N(CC)CC)c3c(C)cc(C)nc3n2)CC1 | 657 s
23 | COCC(=O)N1CCC2(CC1)Nc1ccc(C)c(C)c1-n1cccc12 | 823 s
24 | COc1ccc(-c2cn3cccnc3n2)cc1NC(=O)c1cc(Br)ccc1Cl | 768 s
25 | CCOC(=O)c1c(C)n(C)c2ccccc12 | 887 s
26 | CCNc1nc(N(CC)CC)nc(-n2cnc(SC)n2)n1 | 964 s
27 | CCOc1cccc(CNc2c(-c3nc(C)no3)cnc3nc(C)ccc23)c1 | 724 s
28 | CCOCCCNC(=O)CCCN1C(=O)CCn2nc(C)cc21 | 568 s
29 | Cc1nc(CC(=O)NCc2ccc(F)cc2F)sc1C(=O)NCC(C)C | 757 s
30 | CCNC(=O)[C@H]1O[C@@H](n2cnc3c(N)ncnc32)C(O)[C@H]1O (stereo partly specified) | 555 s
31 | CCCN1CCN(Cc2nc3nc(C)cc(N4CCCCCC4)n3n2)CC1 | 587 s
32 | CN(C)C(=O)c1ccc2c(c1)nnn2CCNC(=O)Nc1cccc(Cl)c1 | 684 s
33 | Cc1cccc(C)c1Nc1c(-c2c(F)cccc2Cl)nc2cnccn12 | 866 s
34 | COc1ccc(N2CC(c3noc(-c4ccc(OC)cc4OC)n3)CC2=O)cc1 (stereo unspecified) | 861 s
35 | COc1ccccc1/C=C/c1nn2c(-c3cccnc3)nnc2s1 | 872 s
36 | O=C1C=C(N2CCNCC2)C(=O)c2c(O)ccc(O)c21 | 600 s
37 | CCCNC(=O)CCc1nc2ccccc2n(CC(=O)NCc2ccccc2)c1=O | 1270 s
38 | CNC(=O)Nc1ccc(S(N)(=O)=O)cc1 | 604 s
39 | COc1ccc(NC(=O)c2cn(-c3cc(N(C)C)ncn3)cn2)c(OC)c1 | 842 s
40 | CSc1ccc(NC(=O)c2ccccc2C(F)(F)F)nn1 | 765 s
41 | O=C(NCCOc1ccc(-c2ccccn2)nn1)c1cccs1 | 586 s

Continued, values first:

Row | RP-LC retention time | Compound
42 | 614 s | Cc1ccc(N2C(=O)CC(N3CCC(C(N)=O)CC3)C2=O)c(Cl)c1 (stereo unspecified)
43 | 961 s | COc1ccc(C(=O)Nc2nc(-c3ccccc3)cs2)cc1OC
44 | 586 s | CC(C)c1cc(N2CCN(C(=O)C3CC3)CC2)nc2nncn12
45 | 564 s | CCCn1c(C)cnc1C1CCN(S(=O)(=O)c2ccc3c(c2)CCC3)C1 (stereo unspecified)
46 | 779 s | COc1ccc(NS(=O)(=O)c2ccc(/C=C\c3onc(C)c3NC(C)=O)cc2)cc1
47 | 990 s | O=C(NCc1ccc2c(c1)CCCN2C(=O)C1CCC1)c1ccc(C(F)(F)F)cc1
48 | 952 s | O=c1n(Cc2cccc(F)c2)nc2ccc(S(=O)(=O)N3CCCCC3)cn12
49 | 1110 s | O=C(NCc1ccccc1C(F)(F)F)C1CCCN(c2nccnc2Sc2ccccc2)C1 (stereo unspecified)
50 | 919 s | O=c1n(Cc2ccc(Cl)cc2)nc2c(S(=O)(=O)N3CCCCC3)cccn12
51 | 735 s | COC(=O)c1c(C)[nH]c(C(=O)N2CCCC(C(=O)NCc3ccc(OC)cc3)C2)c1C (stereo unspecified)
52 | 1230 s | Cc1ccc(NC(=O)C2CCCN(c3nc4ccccc4nc3C(F)(F)F)C2)c(C)c1 (stereo unspecified)
53 | 1050 s | Cc1ccc(-c2csc(NC(=O)CSc3nnc(-c4cc5ccccc5o4)n3C)n2)cc1
54 | 660 s | O=C(CSc1ccc(N2CCCC(C(=O)NC3CC3)C2)nn1)Nc1ccc(F)c(Cl)c1 (stereo unspecified)
55 | 946 s | CCCc1cc(C2CCCN2C(=O)Nc2ccc(C)cc2)no1 (stereo unspecified)
56 | 875 s | O=c1c(=O)n(-c2cccc(Cl)c2)ccn1Cc1nc(-c2ccccc2)no1
57 | 939 s | Fc1ccc(OCc2nc(-c3cccc(-c4ccn[nH]4)c3)no2)cc1
58 | 852 s | CCOC(=O)Cn1c(C2CC(=O)N(c3cccc(SC)c3)C2)nc2ccccc21 (stereo unspecified)
59 | 904 s | COc1cccc(S(=O)(=O)N2C[C@@H](F)C[C@H]2C(=O)N2CCc3ccccc3C2)c1
60 | 675 s | O=S(=O)(c1ccccc1)N1CC[C@@H]2COCCN(Cc3ccccc3)[C@@H]2C1
61 | 734 s | CCn1c(SCC(=O)N2CCCCC2)nnc1-c1ccc2c(c1)OCCCO2
62 | 649 s | CC1=C(c2ccc(F)cc2)S(=O)(=O)N=C1N1CCCN(C(=O)c2ccncc2)CC1
63 | 1150 s | Cc1cccc(-c2nnc(-c3ccc(Cl)c(S(=O)(=O)N4CCCC4)c3)o2)c1
64 | 683 s | CC1CCN(c2ncc(C(=O)O)c(-c3ccncc3)n2)CC1
65 | 1050 s | O=C(C1CCN(S(=O)(=O)c2ccc(-c3noc(C4CC4)n3)cc2)CC1)N1CCc2ccccc2C1
66 | 1350 s | COc1ccccc1N1CCN(c2ccc(-c3nc(-c4ccccc4)no3)cn2)CC1

Row | RP-LC retention time | Compound
67 | 1120 s | O=C(CN1C(=O)C(C(=O)N2CCCCC2)Sc2ccccc21)NCCC1=CCCCC1 (stereo unspecified)
68 | 704 s | CSc1ccccc1C(=O)NCC1CCN(C(=O)c2ccccc2F)CC1
69 | 801 s | COc1ccc(CC(=O)N2CCCC2c2nc(-c3ccc(OC)c(OC)c3)no2)cc1OC (stereo unspecified)
70 | 889 s | Cc1cc(C(=O)Nc2ccc(F)cc2)nc2ccnn12
71 | 1110 s | Cc1ccc(-c2noc(C3CC(=O)N(c4ccc(C)c(F)c4)C3)n2)cc1 (stereo unspecified)
72 | 676 s | CN(C)CCn1nnc2cc(-c3noc(-c4cccc(F)c4)n3)ccc21
73 | 686 s | CCCCOc1ccc(-c2cc3c4nnc(CCC(=O)N5CCN(C)CC5)n4ccn3n2)cc1
74 | 823 s | CN1c2cc(F)ccc2C(=O)NC12CCN(C(=O)c1ccc(F)c(Cl)c1)CC2
75 | 854 s | CC(=O)c1cccc(NC(=O)CN2C(=O)CC(c3ccccc3)=Nc3cccnc32)c1
76 | 822 s | CCC(C)NC(=O)NC1CCN(C2=NS(=O)(=O)C(c3ccc(C)cc3)=C2C)CC1 (stereo unspecified)
77 | 1080 s | CCOc1ccccc1NC(=O)C1CCCN(S(=O)(=O)c2ccc(OC)c(C)c2)C1 (stereo unspecified)
78 | 772 s | CC(=O)N1CCc2cc(N3CC(C(=O)NC(C)c4ccc(C)cc4C)CC3=O)ccc21 (stereo unspecified)
79 | 610 s | Cc1ccc(NC(=O)N2CCCC2c2nc(-c3ccccc3C)no2)c(Cl)c1 (stereo unspecified)
80 | 573 s | CN(C)c1ccc(C(CNS(C)(=O)=O)N2CCc3ccccc3C2)cc1 (stereo unspecified)
81 | 821 s | Cc1ccc(C(=O)Nc2ccc(-n3c(C)nc4ccccc4c3=O)cc2C)s1
82 | 1130 s | CCCOc1nc2ccccc2nc1N1CCCC(C(=O)Nc2ccc(OC)c(OC)c2)C1 (stereo unspecified)
83 | 947 s | Cc1ccc(N2CC(c3noc(-c4ccc(C#N)cc4)n3)CC2=O)cc1 (stereo unspecified)
84 | 604 s | O=C(CCc1nnn2c1CN(C(=O)c1ccccc1)CC2)NC1CC1
85 | 682 s | COc1cc(OC)c(NC(=O)Nc2c(-c3ccccc3)nc3ccccn23)cc1Cl
86 | 982 s | CCc1cccc(C)c1Nc1c(-c2ccc(C(=O)OC)cc2)nc2cnccn12
87 | 1040 s | Cc1ccc(N2C(=O)C3N=NN(Cc4nc(-c5cccc(C)c5)no4)C3C2=O)cc1 (stereo unspecified)
88 | 1130 s | O=C(NCc1ccccc1)N1CC(Oc2ccc(-c3nc(-c4ccccc4)no3)cc2)C1
89 | 855 s | COc1ccc(-c2noc(C3CCCN3C(=O)NCc3ccco3)n2)cc1 (stereo unspecified)
90 | 896 s | COc1ccc(-c2nc3cnccn3c2Nc2ccc(Cl)cc2)cc1
91 | 908 s | O=C(Cn1cccc1-c1nnc(C2CC2)o1)Nc1ccc(F)c(Cl)c1
